Laboratory results from article PMC7884679 (British Journal of Cancer, 2020).
“Also recorded” adds a separate entry of the source.

Experiments:
human cyclooxygenase 1 = target: T1, human cyclooxygenase 1 (Homo sapiens, UniProt P23219); test: Platelet aggregation in aspirin-naïve patients at the RP2D; type: in vivo; details: aspirin-naïve cohort, 400 mg BID
T1 construct: endogenous in cells; host or cells: platelets of aspirin-naïve patients treated at the RP2D

platelet aggregation = details: preclinical data; cited from earlier work
PI3K lipid kinases = test system: PI3K lipid kinases; parameters: method as in PMID 32220971; details: cited from earlier work
[1] = test system: patients with advanced solid tumours; test: Safety and tolerability: treatment-emergent adverse events (CTCAE v4.03); type: in vivo
Description: (§1) In addition, a DLT could be identified by the SMC as any TEAE that impaired daily function or abnormality occurring in patients treated with peposertib at any time during the dose escalation part of the study.
(§2) Safety was assessed through the recording, reporting and analysis of baseline medical conditions, AEs, physical examination findings (including vital signs and monitoring for bleeding), laboratory tests, ECOG PS and 12-lead electrocardiograms. […] PK was assessed using blood samples collected pre-treatment and on-treatment. […] Tumour response was evaluated according to RECIST (v1.1). Target and non-target lesions were measured by computed tomography or magnetic resonance imaging every 6 weeks.
(§3) TEAEs were summarised according to Medical Dictionary for Regulatory Activities (v20.0) preferred term and system organ class. All statistical analyses (except for PK) were performed using SAS 9.1.3 or higher. Tumour assessments, based on investigator evaluations of target, non-target and new lesions according to RECIST (v1.1), were used to derive the best overall response. Trial data were summarised by dose level.

DNA-PK = details: preclinical ref 6–8; cited from earlier work
advanced solid tumours = test: Tumour response by RECIST v1.1; type: in vivo, human
Description: as §2, §3

clinical = details: human, in vivo; for AUC(0-t): AUC0–12; for AUC(0-inf): AUC0–∞; for Vd/F: Vz/f
Description: as §2
The cut-off for the final analysis was when the last patient completed the dose-escalation phase (29 June 2017). The All Patients Analysis Set comprised all patients who provided informed consent (screening failures plus enrolled patients) and was used to describe patient disposition and deaths. […] The Efficacy Analysis Set, including patients who received at least one treatment dose, was used for all efficacy summaries. […] The Biomarker/Pharmacogenomics Analysis Set included patients who received at least the first dose of study drug and provided at least one pre-dose sample and one post-dose sample.

[2] = test system: patients with advanced solid tumours; test: Dose escalation 3 + 3: DLT, MTD, RP2D; type: in vivo
Source text: Dose escalation was by use of a standard ‘3 + 3’ design, based on the presence/absence of dose-limiting toxicities (DLTs). […] The starting dose was considered to have acceptable safety and to be in the range of the biologically active dose based on in vivo pharmacology data.[7]
The MTD was defined as the dose level below the dose at which two out of six patients experienced a DLT. Once the MTD was established, the RP2D was to be defined by the Safety Monitoring Committee (SMC), either at the MTD level or below, depending on the available safety, efficacy, PK and PD data.
as §1

[3] = test system: repair of radiation- or chemotherapy-induced DNA DSBs; details: preclinical studies ref 6–10; cited from earlier work
phosphorylation of AKT = test system: phosphorylation of AKT; parameters: method as in PMID 32220971; details: preclinical experiments ref 8; cited from earlier work

T1 sequence (P23219 24-599): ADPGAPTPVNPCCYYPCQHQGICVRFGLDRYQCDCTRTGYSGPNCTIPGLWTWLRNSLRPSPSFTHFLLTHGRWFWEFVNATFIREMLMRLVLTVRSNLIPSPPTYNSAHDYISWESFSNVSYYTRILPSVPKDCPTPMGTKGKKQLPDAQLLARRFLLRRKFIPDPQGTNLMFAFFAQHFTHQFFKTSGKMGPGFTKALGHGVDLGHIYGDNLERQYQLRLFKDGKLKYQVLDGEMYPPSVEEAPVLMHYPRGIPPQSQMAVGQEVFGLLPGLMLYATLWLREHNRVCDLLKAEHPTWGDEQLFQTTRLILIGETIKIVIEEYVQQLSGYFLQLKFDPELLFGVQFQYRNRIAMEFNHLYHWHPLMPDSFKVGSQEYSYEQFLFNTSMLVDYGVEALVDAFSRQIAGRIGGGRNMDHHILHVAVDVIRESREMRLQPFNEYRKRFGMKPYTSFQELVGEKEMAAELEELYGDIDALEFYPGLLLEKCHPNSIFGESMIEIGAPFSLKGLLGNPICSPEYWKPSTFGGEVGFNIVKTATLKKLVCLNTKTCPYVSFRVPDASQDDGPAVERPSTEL

## COc1ccc([C@@H](O)c2cc(-c3ncnc4cc(N5CCOCC5)ccc34)c(F)cc2Cl)nn1 [Peposertib, peposertib]
Human cyclooxygenase 1
  effect on platelet aggregation: very weak effect; also recorded: only a weak effect
Platelet aggregation
  inhibition of platelet aggregation: reversible inhibition of platelet aggregation at micromolar concentrations
PI3K lipid kinases; compared with DNA-PK, preclinical studies ref 8
  potency on PI3K lipid kinases: significantly lower potency
PI3K lipid kinases; preclinical ref 8
  potency against DNA-PK versus other PI3K and PI3K-related family members: substantially greater
[1]; 100/QD n = 3
  Number of patients with: Any TEAE leading to death: 0 (0) n (%)
  Number of patients with: Any peposertib related TEAE leading to death: 0 (0) n (%)
[1]; 150/BID n = 3
  Number of patients with: Any TEAE leading to death: 0 (0) n (%)
  Number of patients with: Any peposertib related TEAE leading to death: 0 (0) n (%)
[1]; 200/BID n = 3
  Number of patients with: Any TEAE leading to death: 0 (0) n (%)
  Number of patients with: Any peposertib related TEAE leading to death: 0 (0) n (%)
[1]; 200/QD n = 3
  Number of patients with: Any TEAE leading to death: 0 (0) n (%)
  Number of patients with: Any peposertib related TEAE leading to death: 0 (0) n (%)
[1]; 300/BID n = 9
  Number of patients with: Any TEAE leading to death: 0 (0) n (%)
  Number of patients with: Any peposertib related TEAE leading to death: 0 (0) n (%)
[1]; 400/BID (RP2D) n = 6
  Number of patients with: Any TEAE leading to death: 0 (0) n (%)
  Number of patients with: Any peposertib related TEAE leading to death: 0 (0) n (%)
[1]; 400/BID n = 4
  Number of patients with: Any TEAE leading to death: 1 (25) n (%)
  Number of patients with: Any peposertib related TEAE leading to death: 0 (0) n (%)
[1]; Total N = 31
  Number of patients with: Any TEAE leading to death: 1 (3) n (%)
  Number of patients with: Any peposertib related TEAE leading to death: 0 (0) n (%)
[1]; human, in vivo
  Grade 3 peposertib-related maculo-papular rash, patients: 4 n
  Grade 3 peposertib-related nausea, patients: 2 n
  Number of patients with: Any peposertib-related Grade ≥4 TEAE: 0 (0) n (%)
  TEAE constipation, patients: 10 n
  TEAE fatigue, patients: 14 n
  TEAE nausea, patients: 17 n
  TEAE pyrexia, patients: 11 n
  Treatment-related TEAE: Constipation, Grade 3: 0 (0) n (%)
  Treatment-related TEAE: Decreased appetite, Grade 3: 0 (0) n (%)
  Treatment-related TEAE: Diarrhoea, Grade 3: 0 (0) n (%)
  Treatment-related TEAE: Dry mouth, Grade 3: 0 (0) n (%)
  Treatment-related TEAE: Periorbital oedema, Grade 3: 0 (0) n (%)
  Treatment-related TEAE: Vomiting, Grade 3: 0 (0) n (%)
  patients with a serious TEAE: 55%
  patients with at least one TEAE: 31 patients
  patients with at least one TEAE of Grade ≥3: 68%
  patients with peposertib-related Grade 3 TEAEs: 23%
  peposertib-related Grade 4 TEAEs: no peposertib-related Grade 4 TEAEs
[1]; three patients died due to disease progression
  deaths considered treatment-related: None
DNA-PK
  concentrations blocking DNA-PK kinase activity: sub-nanomolar
Advanced solid tumours; RECIST v1.1
  patients with stable disease for ≥12 weeks: seven
Advanced solid tumours; RECIST v1.1, all doses
  objective tumour responses (complete or partial): No objective tumour responses
Advanced solid tumours; one patient, metastatic hepatocellular carcinoma, prior progression on sorafenib, at data cut-off
  duration of stable disease: 69 weeks
Advanced solid tumours; tumour assessment at screening only
  patients not evaluable: 16%
Advanced solid tumours; two patients (metastatic renal cell carcinoma; tonsillar squamous cell carcinoma), 400 mg BID
  time remained on treatment: 36 weeks
clinical
  Tmax: 1.5 h
  geometric mean percent coefficient of variation (%CV) for Cmax: 15.5–117%
clinical; 100 mg
  AUC(0-t): 2290 ng·h/mL
  AUC(0-inf): 2920 ng·h/mL
  Cmax: 440 ng/mL
  Vd/F: 276 L
clinical; 100 mg, t1/2
  half-life: 5.5 h
clinical; 100 mg, tmax
  Tmax: 1.8 h
clinical; 150 mg
  AUC(0-t): 3040 ng·h/mL
  AUC(0-inf): 3770 ng·h/mL
  Cmax: 695 ng/mL
  Vd/F: 304 L
clinical; 150 mg, t1/2
  half-life: 5.1 h
clinical; 200 mg, tmax
  Tmax: 1.4 h
clinical; 300 mg
  Vd/F: 662 L
clinical; 300 mg, t1/2
  half-life: 4.7 h
clinical; 300 mg, tmax
  Tmax: 1.9 h
clinical; 400 mg
  AUC(0-inf): 4140 ng·h/mL
clinical; 400 mg, tmax
  Tmax: 2.4 h
clinical; mean elimination half-life
  half-life: ~5.5 h
clinical; po, median tmax
  Tmax: 1.1 to 2.5 h
[2]; dose escalation up to 400 mg BID
  maximum-tolerated dose (MTD): not reached
[2]; human, in vivo, 21 days
  recommended phase 2 dose (RP2D): 400 mg BID
[3]
  synergy with radiotherapy and DSB-inducing chemotherapies (e.g. etoposide, doxorubicin): demonstrated synergy
Phosphorylation of AKT
  inhibition of the phosphorylation of AKT: only moderate inhibition
